What was measured:
Experiment in all cases: Kinase Selectivity Assay (CEREP, HTRF)
Format in all cases: biochemical
FLT-1 kinase (VEGFR1) = molecular target: T1, FLT-1 kinase (VEGFR1) (Homo sapiens, UniProt P17948); conditions: read-out: % Inhibition at 10 μM Concentration, FLT-1 (VEGFR1)
T1 construct: CEREP, France (ran the assays)
Experimental: (§1) kinase, ROCK2, RSK2, Src kinase, Syk, and TRKA. The % Inhibition was determined

CaMK4 = molecular target: T2, CaMK4 (Homo sapiens, UniProt Q16566); conditions: read-out: % Inhibition at 10 μM Concentration, CaMK4
T2 construct: CEREP, France (ran the assays)
T2 sequence (Q16566 1-473): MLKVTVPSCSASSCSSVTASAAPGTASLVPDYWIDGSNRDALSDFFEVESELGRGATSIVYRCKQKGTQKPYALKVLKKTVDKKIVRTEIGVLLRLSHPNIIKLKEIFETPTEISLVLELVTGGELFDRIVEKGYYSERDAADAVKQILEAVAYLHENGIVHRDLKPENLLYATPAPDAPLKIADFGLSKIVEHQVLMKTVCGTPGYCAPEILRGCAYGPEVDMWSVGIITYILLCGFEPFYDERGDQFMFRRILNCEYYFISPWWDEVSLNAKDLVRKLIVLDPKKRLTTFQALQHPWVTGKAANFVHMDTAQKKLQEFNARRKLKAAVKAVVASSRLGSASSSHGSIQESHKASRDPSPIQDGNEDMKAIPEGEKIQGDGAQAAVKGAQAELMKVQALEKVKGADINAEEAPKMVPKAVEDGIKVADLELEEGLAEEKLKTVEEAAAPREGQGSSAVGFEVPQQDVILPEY
Experimental: as §1

BMX kinase (Etk) = molecular target: T3, BMX kinase (Etk) (Homo sapiens, UniProt P51813); conditions: read-out: % Inhibition at 10 μM Concentration, BMX (Etk)
T3 construct: CEREP, France (ran the assays)
T3 sequence (P51813 1-675): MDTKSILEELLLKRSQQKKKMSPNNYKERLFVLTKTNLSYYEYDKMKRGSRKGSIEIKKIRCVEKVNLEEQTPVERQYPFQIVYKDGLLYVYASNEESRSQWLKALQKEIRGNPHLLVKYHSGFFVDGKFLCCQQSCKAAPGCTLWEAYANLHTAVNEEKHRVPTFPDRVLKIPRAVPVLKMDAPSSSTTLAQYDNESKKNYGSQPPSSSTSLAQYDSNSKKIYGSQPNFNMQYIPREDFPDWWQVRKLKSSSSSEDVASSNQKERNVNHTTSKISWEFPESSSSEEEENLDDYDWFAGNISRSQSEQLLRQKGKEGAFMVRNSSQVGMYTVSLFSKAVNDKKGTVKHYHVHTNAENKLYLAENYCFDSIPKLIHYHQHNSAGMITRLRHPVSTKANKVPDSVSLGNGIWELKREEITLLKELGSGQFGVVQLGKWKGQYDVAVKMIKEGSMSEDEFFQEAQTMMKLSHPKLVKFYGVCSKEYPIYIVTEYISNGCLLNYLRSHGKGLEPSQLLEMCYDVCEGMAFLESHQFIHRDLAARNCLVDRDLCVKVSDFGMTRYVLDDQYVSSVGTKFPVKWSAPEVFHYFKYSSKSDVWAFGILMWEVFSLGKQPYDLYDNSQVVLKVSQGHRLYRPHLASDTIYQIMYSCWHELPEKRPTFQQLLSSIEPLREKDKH
Experimental: as §1

FLT-3 kinase = molecular target: T4, FLT-3 kinase (Homo sapiens, UniProt P36888); conditions: read-out: % Inhibition at 10 μM Concentration, FLT-3
T4 sequence (P36888 27-993): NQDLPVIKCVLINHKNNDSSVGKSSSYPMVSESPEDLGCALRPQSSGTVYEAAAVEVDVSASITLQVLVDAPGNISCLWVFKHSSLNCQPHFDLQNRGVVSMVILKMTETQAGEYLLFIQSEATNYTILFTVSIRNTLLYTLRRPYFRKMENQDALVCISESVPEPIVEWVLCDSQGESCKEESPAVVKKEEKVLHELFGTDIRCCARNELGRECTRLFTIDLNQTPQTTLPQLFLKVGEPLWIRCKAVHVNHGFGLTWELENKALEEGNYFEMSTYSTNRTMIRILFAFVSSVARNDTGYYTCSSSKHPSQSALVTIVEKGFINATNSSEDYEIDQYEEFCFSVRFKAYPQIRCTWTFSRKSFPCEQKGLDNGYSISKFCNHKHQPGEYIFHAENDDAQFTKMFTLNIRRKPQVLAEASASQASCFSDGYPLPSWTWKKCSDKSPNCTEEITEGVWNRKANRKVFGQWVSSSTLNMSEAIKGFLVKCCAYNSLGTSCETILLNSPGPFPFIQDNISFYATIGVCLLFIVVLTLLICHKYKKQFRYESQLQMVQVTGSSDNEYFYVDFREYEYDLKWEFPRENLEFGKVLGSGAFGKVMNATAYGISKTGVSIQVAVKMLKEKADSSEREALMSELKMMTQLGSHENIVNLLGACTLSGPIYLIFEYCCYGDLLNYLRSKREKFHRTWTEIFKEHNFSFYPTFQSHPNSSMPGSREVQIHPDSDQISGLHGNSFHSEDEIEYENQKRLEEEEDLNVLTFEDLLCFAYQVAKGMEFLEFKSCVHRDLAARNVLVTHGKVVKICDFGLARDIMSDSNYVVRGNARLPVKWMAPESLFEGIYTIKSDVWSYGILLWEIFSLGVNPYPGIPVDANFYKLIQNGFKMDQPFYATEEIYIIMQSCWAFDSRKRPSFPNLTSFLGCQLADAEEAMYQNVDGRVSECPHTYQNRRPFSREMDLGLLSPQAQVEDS
Experimental: as §1

PKA = PKA (Homo sapiens, UniProt P17612); conditions: read-out: % Inhibition at 10 μM Concentration, PKA
Experimental: as §1

PKCb2 = PKCb2 (Homo sapiens, UniProt P05771); conditions: read-out: % Inhibition at 10 μM Concentration, PKCbeta 2
Chain of PKCb2 (P05771 1-673 isoform P05771-2): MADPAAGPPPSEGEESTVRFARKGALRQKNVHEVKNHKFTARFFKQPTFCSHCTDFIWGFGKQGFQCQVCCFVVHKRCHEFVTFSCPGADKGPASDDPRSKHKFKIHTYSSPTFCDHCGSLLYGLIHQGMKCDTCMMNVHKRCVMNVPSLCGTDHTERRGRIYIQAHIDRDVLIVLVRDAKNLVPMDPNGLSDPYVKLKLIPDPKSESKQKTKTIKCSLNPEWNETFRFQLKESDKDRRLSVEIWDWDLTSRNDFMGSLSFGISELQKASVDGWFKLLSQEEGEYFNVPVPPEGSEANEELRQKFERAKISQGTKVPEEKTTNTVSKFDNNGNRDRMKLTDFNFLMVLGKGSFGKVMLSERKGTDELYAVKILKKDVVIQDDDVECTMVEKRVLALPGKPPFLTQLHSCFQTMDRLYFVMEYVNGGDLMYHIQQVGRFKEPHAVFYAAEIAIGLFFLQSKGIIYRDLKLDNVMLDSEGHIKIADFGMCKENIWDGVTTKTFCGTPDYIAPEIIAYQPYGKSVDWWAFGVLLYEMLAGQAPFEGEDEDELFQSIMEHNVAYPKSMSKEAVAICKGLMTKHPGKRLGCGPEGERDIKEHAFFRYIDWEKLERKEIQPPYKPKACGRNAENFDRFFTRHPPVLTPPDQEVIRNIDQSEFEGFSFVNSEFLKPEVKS
Experimental: as §1

KDR kinase (VEGFR2) = KDR kinase (VEGFR2) (Homo sapiens, UniProt P35968); conditions: read-out: % Inhibition at 10 μM Concentration, KDR (VEGFR2)
Chain of KDR kinase (VEGFR2) (P35968 20-1356): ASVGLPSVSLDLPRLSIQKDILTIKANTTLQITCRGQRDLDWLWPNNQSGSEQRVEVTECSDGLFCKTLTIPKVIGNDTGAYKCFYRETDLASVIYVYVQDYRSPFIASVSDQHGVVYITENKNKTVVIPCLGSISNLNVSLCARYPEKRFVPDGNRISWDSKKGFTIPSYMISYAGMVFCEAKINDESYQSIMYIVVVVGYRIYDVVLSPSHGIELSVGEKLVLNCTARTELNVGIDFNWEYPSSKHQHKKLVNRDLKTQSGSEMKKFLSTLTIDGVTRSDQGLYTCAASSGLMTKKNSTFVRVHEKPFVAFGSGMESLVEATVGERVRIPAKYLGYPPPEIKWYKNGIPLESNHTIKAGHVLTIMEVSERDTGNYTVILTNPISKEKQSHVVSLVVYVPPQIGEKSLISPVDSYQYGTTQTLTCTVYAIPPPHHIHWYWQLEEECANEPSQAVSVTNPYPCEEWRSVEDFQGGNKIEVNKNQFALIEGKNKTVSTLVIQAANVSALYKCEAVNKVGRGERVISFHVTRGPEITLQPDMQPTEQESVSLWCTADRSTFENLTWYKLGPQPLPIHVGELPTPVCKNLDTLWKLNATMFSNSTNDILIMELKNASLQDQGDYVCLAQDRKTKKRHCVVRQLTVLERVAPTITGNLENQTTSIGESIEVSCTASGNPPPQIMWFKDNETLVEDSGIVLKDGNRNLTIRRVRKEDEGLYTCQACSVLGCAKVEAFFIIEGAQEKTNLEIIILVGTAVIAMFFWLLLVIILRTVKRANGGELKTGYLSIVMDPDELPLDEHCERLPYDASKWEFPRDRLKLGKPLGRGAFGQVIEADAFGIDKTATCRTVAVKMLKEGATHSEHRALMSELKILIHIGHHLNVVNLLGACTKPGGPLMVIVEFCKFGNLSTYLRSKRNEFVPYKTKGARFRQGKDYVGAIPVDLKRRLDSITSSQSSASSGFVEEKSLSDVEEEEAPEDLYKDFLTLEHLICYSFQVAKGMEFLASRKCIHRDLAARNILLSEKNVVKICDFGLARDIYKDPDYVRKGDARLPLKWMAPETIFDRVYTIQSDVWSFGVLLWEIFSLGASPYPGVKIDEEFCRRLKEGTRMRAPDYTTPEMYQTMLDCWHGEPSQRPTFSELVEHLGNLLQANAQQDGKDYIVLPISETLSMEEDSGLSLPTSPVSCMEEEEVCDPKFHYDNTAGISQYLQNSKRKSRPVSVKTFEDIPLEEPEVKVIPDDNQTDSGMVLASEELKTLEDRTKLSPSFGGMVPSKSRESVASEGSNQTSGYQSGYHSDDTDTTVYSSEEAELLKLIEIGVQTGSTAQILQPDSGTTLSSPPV
Experimental: as §1

IGF1R kinase = IGF1R kinase (Homo sapiens, UniProt P08069); conditions: read-out: % Inhibition at 10 μM Concentration, IGF1R
Experimental: as §1

CDC2/CDK1 (cycB) = molecular target: T5, CDC2/CDK1 (cycB) (Homo sapiens, UniProt P06493); conditions: read-out: % Inhibition at 10 μM Concentration, CDC2/CDK1
T5 construct: CEREP, France (ran the assays)
T5 sequence (P06493 whole entry): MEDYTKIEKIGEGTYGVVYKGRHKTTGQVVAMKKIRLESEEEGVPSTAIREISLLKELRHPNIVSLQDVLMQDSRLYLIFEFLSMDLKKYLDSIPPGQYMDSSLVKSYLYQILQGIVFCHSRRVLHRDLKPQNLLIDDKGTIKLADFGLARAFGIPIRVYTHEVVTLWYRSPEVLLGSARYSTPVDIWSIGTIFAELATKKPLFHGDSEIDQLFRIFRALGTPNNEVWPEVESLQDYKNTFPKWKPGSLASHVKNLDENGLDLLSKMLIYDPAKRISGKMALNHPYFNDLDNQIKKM
T5 sequence (P14635 whole entry partner): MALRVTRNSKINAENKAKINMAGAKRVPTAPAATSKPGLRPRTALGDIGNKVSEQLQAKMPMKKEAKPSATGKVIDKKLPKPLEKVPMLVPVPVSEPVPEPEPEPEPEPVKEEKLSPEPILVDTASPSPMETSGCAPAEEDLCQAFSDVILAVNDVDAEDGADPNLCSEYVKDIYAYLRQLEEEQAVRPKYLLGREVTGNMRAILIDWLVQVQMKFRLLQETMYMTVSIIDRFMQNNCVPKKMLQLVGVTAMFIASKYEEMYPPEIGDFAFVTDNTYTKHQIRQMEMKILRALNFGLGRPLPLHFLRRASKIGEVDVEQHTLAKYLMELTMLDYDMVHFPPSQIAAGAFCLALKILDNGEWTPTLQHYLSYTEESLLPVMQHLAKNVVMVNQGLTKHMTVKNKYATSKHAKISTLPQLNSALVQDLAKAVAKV
Experimental: as §1

Brk = molecular target: T6, Brk (Homo sapiens, UniProt Q13882); conditions: read-out: % Inhibition at 10 μM Concentration, Brk
T6 construct: CEREP, France (ran the assays)
T6 sequence (Q13882 whole entry): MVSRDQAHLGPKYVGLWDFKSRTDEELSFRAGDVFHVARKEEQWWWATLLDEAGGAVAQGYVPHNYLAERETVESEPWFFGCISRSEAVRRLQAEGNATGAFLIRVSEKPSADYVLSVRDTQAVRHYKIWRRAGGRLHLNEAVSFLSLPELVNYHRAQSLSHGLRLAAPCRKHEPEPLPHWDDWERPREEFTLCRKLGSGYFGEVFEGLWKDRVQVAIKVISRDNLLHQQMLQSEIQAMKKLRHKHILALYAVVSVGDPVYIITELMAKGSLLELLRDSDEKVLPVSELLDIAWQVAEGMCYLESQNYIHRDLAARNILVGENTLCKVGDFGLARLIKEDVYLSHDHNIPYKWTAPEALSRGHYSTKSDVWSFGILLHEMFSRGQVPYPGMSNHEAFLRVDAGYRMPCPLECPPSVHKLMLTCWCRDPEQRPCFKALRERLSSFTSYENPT
Experimental: as §1

T1 sequence (P17948 27-1338): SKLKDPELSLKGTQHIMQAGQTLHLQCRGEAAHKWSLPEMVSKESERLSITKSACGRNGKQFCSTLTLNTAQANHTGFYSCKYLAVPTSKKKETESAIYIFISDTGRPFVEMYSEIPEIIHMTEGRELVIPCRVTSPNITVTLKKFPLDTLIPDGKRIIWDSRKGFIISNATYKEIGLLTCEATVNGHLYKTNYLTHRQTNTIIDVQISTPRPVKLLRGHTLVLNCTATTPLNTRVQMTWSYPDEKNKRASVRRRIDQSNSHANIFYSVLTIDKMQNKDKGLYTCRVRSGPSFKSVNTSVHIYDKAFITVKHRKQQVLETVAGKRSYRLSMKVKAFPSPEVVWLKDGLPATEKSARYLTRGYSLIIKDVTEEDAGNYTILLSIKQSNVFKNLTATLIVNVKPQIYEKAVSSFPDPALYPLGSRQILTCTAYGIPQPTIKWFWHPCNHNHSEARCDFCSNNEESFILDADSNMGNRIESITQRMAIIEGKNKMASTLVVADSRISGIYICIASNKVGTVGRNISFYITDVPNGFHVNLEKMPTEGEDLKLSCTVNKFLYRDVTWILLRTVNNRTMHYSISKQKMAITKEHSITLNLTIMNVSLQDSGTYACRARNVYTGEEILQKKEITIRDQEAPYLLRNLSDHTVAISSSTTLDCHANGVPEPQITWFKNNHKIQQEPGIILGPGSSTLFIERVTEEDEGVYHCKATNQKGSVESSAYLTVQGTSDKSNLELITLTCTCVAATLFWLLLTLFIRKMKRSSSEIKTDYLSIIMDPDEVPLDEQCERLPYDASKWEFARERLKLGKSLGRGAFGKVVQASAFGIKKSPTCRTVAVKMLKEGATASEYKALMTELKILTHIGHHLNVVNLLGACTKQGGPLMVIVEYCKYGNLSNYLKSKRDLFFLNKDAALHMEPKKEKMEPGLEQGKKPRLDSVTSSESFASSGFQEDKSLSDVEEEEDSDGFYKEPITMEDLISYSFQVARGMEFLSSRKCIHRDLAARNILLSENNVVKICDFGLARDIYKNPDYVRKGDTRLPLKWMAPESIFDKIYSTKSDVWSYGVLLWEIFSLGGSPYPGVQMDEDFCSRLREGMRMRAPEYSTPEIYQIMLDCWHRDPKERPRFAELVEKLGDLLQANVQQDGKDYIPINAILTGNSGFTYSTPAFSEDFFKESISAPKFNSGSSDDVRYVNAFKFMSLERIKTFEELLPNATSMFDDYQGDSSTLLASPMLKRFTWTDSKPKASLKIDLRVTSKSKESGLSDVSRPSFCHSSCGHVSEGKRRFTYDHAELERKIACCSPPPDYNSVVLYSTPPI

SMILES | inhibition at 10 µM (FLT-1 kinase (VEGFR1)) [%] | inhibition at 10 µM (CaMK4) [%] | inhibition at 10 µM (BMX kinase (Etk)) [%] | inhibition at 10 µM (FLT-3 kinase) [%] | inhibition at 10 µM (PKA) [%] | inhibition at 10 µM (PKCb2) [%] | inhibition at 10 µM (KDR kinase (VEGFR2)) [%] | inhibition at 10 µM (IGF1R kinase) [%] | inhibition at 10 µM (CDC2/CDK1 (cycB)) [%] | inhibition at 10 µM (Brk) [%]
O=C1Nc2ccccc2/C1=C\c1ccc2cn[nH]c2c1 [Example A5, (E)-3-((1H-indazol-6-yl)methylene)indolin-2-one] | 16 | 26 | -3 | 76 | -1 | 2 | 29 | -4 | 9 | -6
COc1ccc2c(c1)C(=Cc1ccc3c(-c4ccc(N5CCN(C)CC5)nc4)n[nH]c3c1)C(=O)N2 (mixture of isomers) [Example A97, (E and Z)-5-methoxy-3-((3-(6-(4-methylpiperazin-1-yl)pyridin-3-yl)-1H-indazol-6-yl)methylene)indolin-2-one] | 73 | 2 | 9 | 100 | 0 | 37 | 93 | 4 | 15 | 7
O=C1Nc2ccccc2/C1=C\c1ccc2[nH]nnc2c1 [Example A1, (E)-3-((1H-benzo[d][1,2,3]triazol-5-yl)methylene)indolin-2-one] | 0 | 3 | – | 93 | 9 | 0 | 59 | 7 | 2 | 5
O=C1Nc2ccccc2C1=Cc1ccc2c(/C=C/c3ccccn3)n[nH]c2c1 (mixture of isomers) [Example A41, (E and Z)-3-((3-((E)-2-(pyridin-2-yl)vinyl)-1H-indazol-6-yl)methylene)indolin-2-one] | 99 | 27 | 53 | 100 | -4 | 12 | 100 | 43 | 62 | 40
O=C1Nc2ccccc2/C1=C\c1ccc2c(/C=C/c3ccccc3Cl)n[nH]c2c1 [Example A60, (E)-3-((3-((E)-2-chlorostyryl)-1H-indazol-6-yl)methylene)indolin-2-one] | 42 | -15 | 18 | 10 | 7 | 4 | 8 | 81 | 18 | 4

From patent publication US8765748B2, “Indazolyl, benzimidazolyl, benzotriazolyl substituted indolinone derivatives as kinase inhibitors useful in the treatment of cancer” (University Health Network, priority 2007, dated 2014)
